# Like-named read-outs stand apart in the source and are kept apart here.
# Columns and labels:
# [1] = tested on: STAM model of non-alcoholic steatohepatitis; assay: In vivo efficacy study in the STAM model of non-alcoholic steatohepatitis (Example 1); parameters: species or system C57BL/6 mice
# Method: Steatohepatitis (Treatment period: 6 to 9 wks and 9-12 weeks)
# The study involves 14-day-pregnant C57BL/6 mice. NASH was established by a single subcutaneous injection of 200 μg streptozotocin (Sigma, USA) after birth and feeding with a high fat diet (HFD, 57% kcal fat, CLEA Japan, Japan) ad libitum after 4 weeks of age (day 28±2). Randomization of NASH mice into groups of 12 mice at 6 weeks of age (day 42±2) and groups of 12 mice at 9 weeks of age (day 63±2), the day before the start of treatment, respectively. NASH animals were dosed from age 6-9 weeks (Study 1), or from age 9-12 weeks (Study 2) with either: vehicle, Compound A, OCA or Compound A. A non-disease vehicle-control group of was included in both Study 1 and Study 2. These animals were fed with a normal diet (CE-2; CLEA Japan) ad libitum.
# PK samples were collected and stored at ≤−60° C. Animals were dosed according to the dosing schedule below. Each animal was sacrificed 5 hours after last morning dose on the last day of study treatment (the evening dose of cenicriviroc or vehicle […] that day due to sacrifice).
# Measurements: • The following parameters were measured or monitored daily: individual body weight, survival, clinical signs and behavior of mice. • Pharmacokinetic measurements: PK samples were collected from 4 animals per time point per compound. PK samples were for Compound A at hours 1 and 24 on Day 6 (n=4 per timepoint) for both monotherapy and combination groups. PK samples were taken for Cenicriviroc on Day 10 at hours 2 and 12 (n=4 per timepoint) for both monotherapy and combination groups. Only one PK sample was collected per animal using the first 8 animals per group, per the schedule below:
# Mice were sacrificed at 9 weeks of age (study 1) or at 12 weeks of age (study 2).
# The following samples were collected: plasma, liver (fresh liver samples for gene expression analysis were collected at 5 hr post the last morning (AM) dose for each animal), stool. Organ weight was measured.
# The following biochemical assays were performed: Non-fasting blood glucose in whole blood by Life Check (Eidia, Japan); serum ALT by FUJI DRI-CHEM (Fujifilm, Japan); serum triglyceride; serum MCP-1, RANTES (CCLS) and MIP-1a/MIP-1 quantification by a commercial ELISA kit; liver triglyceride by Triglyceride E-test kit (Wako, Japan); liver hydroxyproline quantification by hydrolysis method; histological analyses for liver section; HE staining and estimation of NAFLD Activity score; Sirius-red staining and estimation of fibrosis area (with and without perivascular space subtracted); oil red staining and estimation of fat deposition area; F4/80 immunohistochemistry staining and estimation of inflammation area; alpha-SMA immunohistochemistry staining and estimation of α-SMA positive area Gene expression assays using total RNA from the liver.
# Statistical tests were performed using one-way ANOVA followed by Dunnett's test and the Mann-Whitney test, as appropriate, for the multiple group comparisons. P values <0.05 are considered statistically significant.
# STAM mouse model of NASH = assay: Compound A versus OCA in the STAM mouse model of NASH (Example 2); assay type: in vivo; settings: Compound A 3 to 30 mg/kg vs OCA 25 mg/kg, 3 weeks
# Text: FIGS. 1 and 2 describe an in-vivo efficacy study of Compound A versus OCA in the STAM model of non-alcoholic steatohepatitis for a treatment period of 6-9 weeks. FIG. 2 refers to the results on NAFLD Activity Score; FIG. 1 to Sirius-red positive area.
# NASH was induced for 6 weeks prior to treatment with the indicated compound (and dose). Then, they have been treated with the indicated compound for 3 weeks prior to sacrifice.
# (§1) NAFLD Activity Score from H&E stained liver sections from STAM disease (NASH) animals treated for 3 weeks with the indicated compound or vehicle. Disease was initiated in animals for 6 weeks prior to dosing and then animals were treated with Vehicle-1, Vehicle-2, Compound A (3 to 30 mg/kg) or OCA (25 mg/kg) for 3 weeks. NAS was determined by the method of Kleiner (Kleiner et al. 2005).
# as §1, with “Sirius red” for “NAFLD Activity Score from H&E”, “Quantitative analysis” for “NAS was determined by the method”, “Sirius Red sections were performed using ImageJ software.” for “Kleiner (Kleiner et al. 2005).”
# ANIT-induced cholestasis = assay: Rat ANIT-induced cholestasis chronic treatment model; assay type: in vivo
# Method: The efficacious concentration of Compound A was determined by PK/PD modeling from the rat ANIT-induced cholestasis chronic treatment model.
# [2] = Human study SAD/MAD: safety, tolerability and plasma pharmacokinetics; assay type: in vivo
# Method: (§2) Methods: SAD: Subjects received 5 to 750 mg of Compound A (7 cohorts: 6 active, 2 placebo); subjects from one cohort returned for a second dosing cycle with a high-fat meal (3 active, 1 placebo). MAD: Subjects received 5 to 250 mg of Compound A daily for 14 days (5 cohorts; 6 active, 2 placebo). All adverse events (AEs) were captured, and plasma levels of Compound A and PD biomarkers were determined pre- and post-dosing at various time points.
# [3] = tested on: FGF19, C4, total bile acid; assay: Human study SAD/MAD: PD biomarkers; assay type: in vivo
# Method: as §2
# [4] = tested on: nonalcoholic steatohepatitis patients; settings: long term administration; cited from earlier work
# PBC = settings: in vivo; cited from earlier work
# [5] = tested on: NASH in adults with liver fibrosis; settings: human, in vivo; cited from earlier work
smiles,measurement,setting,value
"Cn1nc(C(=O)N(Cc2ccccc2)Cc2ccc(C(=O)O)cc2)c2c1-c1cc(Cl)ccc1OC2 [Compound A, 4-((N-benzyl-8-chloro-1-methyl-1,4-dihydrochromeno[4,3-c]pyrazole-3 carboxamido)methyl)benzoic acid]","Ballooning, NAS (mean +/− SD)",[1]; Study 1,1.3 ± 0.8
same,"Ballooning, Score 0 (number of animals/group)",[1]; Study 1,2
same,"Ballooning, Score 1 (number of animals/group)",[1]; Study 1,3
same,"Ballooning, Score 2 (number of animals/group)",[1]; Study 1,5
same,"Fibrosis, NAS (mean +/− SD)",[1]; Study 1,0.51 ± 0.25
same,"Inflammatory infiltrates, Score 0 (number of animals/group)",[1]; Study 1,7
same,"Inflammatory infiltrates, Score 1 (number of animals/group)",[1]; Study 1,2
same,"Inflammatory infiltrates, Score 2 (number of animals/group)",[1]; Study 1,1
same,"Inflammatory infiltrates, Score 3 (number of animals/group)",[1]; Study 1,0
same,NAS (mean +/− SD),"[1]; Study 1, dosed from age 6-9 weeks",2.7 ± 1.1
same,"Ballooning, NAS (mean +/− SD)",[1]; Study 2,0.7 ± 0.8
same,"Ballooning, Score 0 (number of animals/group)",[1]; Study 2,5
same,"Ballooning, Score 1 (number of animals/group)",[1]; Study 2,3
same,"Ballooning, Score 2 (number of animals/group)",[1]; Study 2,2
same,"Fibrosis, NAS (mean +/− SD)",[1]; Study 2,0.55 ± 0.32
same,"Inflammatory infiltrates, Score 0 (number of animals/group)",[1]; Study 2,3
same,"Inflammatory infiltrates, Score 1 (number of animals/group)",[1]; Study 2,1
same,"Inflammatory infiltrates, Score 2 (number of animals/group)",[1]; Study 2,4
same,"Inflammatory infiltrates, Score 3 (number of animals/group)",[1]; Study 2,2
same,NAS (mean +/− SD),"[1]; Study 2, dosed from age 9-12 weeks",2.7 ± 1.1
same,Ballooning compared with the STAM-Vehicle group,[1]; both studies,trend for the reduction of ballooning
same,Fibrosis area compared with the STAM-Vehicle group,[1]; both studies,trend for the reduction of the fibrosis area
same,Inflammatory infiltrates compared with the STAM-Vehicle group,[1]; both studies 1 and 2,significant reduction of Inflammatory infiltrates
same,NAS compared with the STAM-Vehicle group,[1]; both studies 1 and 2,significant reduction in NAS
same,Reduction of fibrosis,STAM mouse model of NASH,to a greater extent than OCA
same,Reduction of hepatic steatosis,STAM mouse model of NASH,to a greater extent than OCA
same,Reduction of hepatocellular ballooning,STAM mouse model of NASH,to a greater extent than OCA
same,Reduction of lobular inflammation,STAM mouse model of NASH,to a greater extent than OCA
same,ALT reduction,ANIT-induced cholestasis; 1.5 mg/kg,75%
same,AST reduction,ANIT-induced cholestasis; 1.5 mg/kg,80%
same,GGT reduction,ANIT-induced cholestasis; 1.5 mg/kg,85%
same,ANIT-induced histologic alterations in the liver,"ANIT-induced cholestasis; rat, in vivo",reduced the ANIT-induced histologic alterations in the liver
same,accumulation ratio,[2]; MAD,mild
same,Steady-state reached,"[2]; MAD, daily for 14 days",≤ 5 days
same,AUC decrease,"[2]; SAD, with high-fat meal",26%
same,Cmax decrease,"[2]; SAD, with high-fat meal",58%
same,Severe drug-related AEs,[2]; any cohort,No severe drug-related AEs were reported
same,Safety and pharmacological activity,[2]; daily doses of 5 mg to 750 mg,safe and pharmacological active
same,SAEs attributed,[2]; daily doses up to 250 mg for 14 days,No SAEs have been attributed
same,Tmax,"[2]; human, plasma, oral, SAD, with high-fat meal, read-out: median Tmax",4 h
same,Cmax,"[2]; human, plasma, oral, SAD, 5-750 mg doses",177 to 12700 ng/mL
same,half-life,"[2]; human, plasma, oral, SAD, 5-750 mg doses, read-out: mean t1/2",11.7 to 23.5 h
same,Tmax,"[2]; human, plasma, oral, SAD, 5-750 mg doses, read-out: median plasma Tmax",1.75 to 3 h
same,Tolerability,[2]; maximum doses tested (750 mg SAD and 250 mg MAD),well tolerated
same,plasma FGF19 levels,"[3]; MAD, Day 14",dose-dependent increase
same,plasma FGF19 median Cmax,"[3]; MAD, Day 14, 250 mg",979 pg/mL
same,serum C4 levels,"[3]; MAD, similar dose range",decline
same,total bile acid (TBA) levels,"[3]; MAD, similar dose range",decline
same,FGF19 with increasing doses,[3]; doses even beyond 250 mg,continues to rise
same,Serum FGF15 levels,[3]; in vivo,increased with Compound A treatment in a dose-dependent manner
"CC[C@H]1[C@@H](O)[C@@H]2[C@H](CC[C@]3(C)[C@@H]([C@H](C)CCC(=O)O)CC[C@@H]23)[C@@]2(C)CC[C@@H](O)C[C@@H]12 [OCA, Obeticholic acid]",Safety concerns,[4],"can be associated with pruritus, as well as with increased LDL cholesterol"
"C[C@H](CCC(=O)O)[C@H]1CC[C@H]2[C@@H]3[C@@H](O)C[C@@H]4C[C@H](O)CC[C@]4(C)[C@H]3CC[C@]12C [UDCA, Ursodeoxycholic acid]",population that does not respond,PBC,30-40%
"CCCCOCCOc1ccc(-c2ccc3c(c2)/C=C(/C(=O)Nc2ccc([S@@+]([O-])Cc4cncn4CCC)cc2)CCCN3CC(C)C)cc1 [cenicriviroc, (S,E)-8-(4-(2-butoxyethoxy)phenyl)-1-(2-methylpropyl)-N-(4-(((1-propyl-1H-imidazol-5-yl)methyl)sulfinyl)phenyl)-1,2,3,4-tetrahydrobenzo[b]azocine-5-carboxamide]",Adverse effects,[5],can induce fatigue or diarrhea in a small part of the patients
same,Fibrosis,[5],reduction of fibrosis
same,Improvement of NAS,[5],no significant impact

# Source: patent publication US11052069B2, “Regimes of FXR agonists” (NOVARTIS AG, priority 2016, dated 2021)
